Results from US20210322450A1, “APPLICATION OF COMPOSITION CONTAINING NICOTINAMIDE MONONUCLEOTIDE IN ANTI-AGING DRUGS/HEALTHCARE PRODUCTS” (HOBOOMLIFE BIO-TECHNOLOGY (SHENZHEN) CO., LTD., priority 2019, published 2021).

Tested on: ex-vivo carotid artery segment of the mouse
Assay: Ex-vivo carotid artery segment incubated with TEMPOL in vitro (EDD)
Set-up: species or system C57BL/6 male mice
Description: After 8 weeks, the mice were anesthetized with isoflurane and euthanized by bloodletting through cardiac puncture. The carotid artery was excised, the […] was inserted into the tip of a glass micropipette, and fixed with a nylon suture in a myograph chamber (DMTInc., Ann Arbor, Mich., USA) containing a buffered saline solution.
The artery was pressurized to 50 mm Hg at 37° C. and equilibrated for 45 minutes before the experiment. After sub-polar contraction was performed using phenylephrine (2 μM), the diameter of the arterial lumen was increased to the degree of response of acetylcholine (Ach: 1×10^−91×10^−4 M), and the arterial tube treated with acetylcholine was used to determine […] dilation by vasodilation in response to NO donor sodium nitroprusside (SNP: 1×10^−101×10^−4 M). Calculated according to the following formula, the vasodilation response was recorded as the actual diameter due to the difference in the maximum carotid artery diameter of the young and old animals, expressed as a percentage of the maximum reaction. The formula is as follows:
Dilation (%)=(Ds−Db)/(Dm−Db)×100%;
wherein, Dm is the maximum diameter of the lumen under a pressure of 50 mm Hg pressure; Db is the steady-state lumen diameter after pre-contraction before the first addition of the drug; Ds is the steady-state lumen diameter recorded after the drug is added.

CC1(C)CC(O)CC(C)(C)N1[O] [TEMPOL, 4-hydroxy-2,2,6,6-tetramethylpiperidin-1-yloxy]
EDD of the carotid artery after incubation in vitro (old control group): restored the EDD | EDD of the carotid artery after incubation in vitro (other groups (young control, young and old experimental groups)): no effect
